Measurements as given in US11759439B2, “Bromhexine for the treatment of pain” (priority 2017, dated 2023).
“Also recorded” adds a separate entry of the source.

Experiments:
[1] = test system: rodents; details: cited from earlier work
[2] = test system: humans; details: cited from earlier work
[3] = molecular target: T1, tetrodotoxin-resistant (TTXr) Na+ currents encoded by Nav1.8 (Homo sapiens, UniProt Q9Y5Y9); details: preference for TTXr Na+ currents encoded by Nav1.8; cited from earlier work
T1 construct: host or cells: sensory neurons

[4] = test system: patient with neuropathic pain in both feet; assay: Case report 2: topical bromhexine cream, NRS pain score, neuropathic forefoot pain; type: in vivo, human; details: for effect of earlier treatment (patient history): before bromhexine
From the text: (§1) In the following Examples a dermal topical cream was used comprising 20% (w/w) bromhexine HCl (10 g), medium-chain triglycerides (MCTs; Triglycerida Saturata Medium Migloyol® 812N, FAGRON GmbH & Co. KG, Cas No. 73398-61-5) (5 g), Linola Creme ad 50 g (Dr. August Wolff GmbH & Co. KG Arzneimittel, PZN 02489672; emulsion O/W containing unsaturated fatty acids (C182), carbomer 980, decyloleat, glycerol monosterate, ceteareth-3, phenoxyethanol, stearic acid, trometamol, wax bleached and purified water), unless stated otherwise. The dermal topical cream was prepared by mixing bromhexine with the MCTs and adding the Linola Creme to obtain a homogenous cream. We chose a dermal topical cream rather than a gel, because a cream is better absorbed by the skin. Bromhexine was fast and easy to formulate into a topical pharmaceutical composition, particularly into a homogenous cream.
(§2) The dermal topical cream was administered (thinly) to the skin in the affected area and a beneficial effect was typically noticed within 30 min. The effect lasted for about 4 to 12 hours, typically 6 hours. For long term treatment the cream was administered 2 to 3 times per day. In some cases a once daily administration was sufficient.
(§3) In all case reports shown below, the intensity of pain is reported with the NRS-Score (NRS=numeric rating scale) on which the patient rates their pain between ‘0=no pain’ and ‘10=unbearable pain’. The NRS-Score is the standard of pain evaluation in international publications and according to the literature an intensity of NRS 3 or lower usually is felt as ‘tolerable’ by patients with chronic pain.
The […] presented neuropathic pain in both feet and felt “running on coals” and as “gripped in a vice”, walking or gardening were almost impossible. It could not be explained in orthopaedic terms and no polyneuropathy was detected on neurographic investigation. […] Gabapentin, opiates and topical lidocaine were not helpful. After topical bromhexine the pain of NRS 5 during the heel-to-toe roll and the forefoot touch sensitivity decreased to NRS 1 within 15 min and disappeared after 30 min for hours (FIG. 6, last columns, “neuropathic forefoot pain”).

[5] = test system: patient with chronic pain caused by osteoarthritis of the fingers; assay: Case report 9: topical bromhexine, osteoarthritis of the fingers; type: in vivo, human; details: 15 min after topical bromhexine; before: incomplete and very painful
From the text: as §1, §2
A patient with chronic pain caused by osteoarthritis of the fingers for many years. Forming a fist was incomplete and very painful. […]

[6] = test system: patient with severe fibromyalgia pain; assay: Case report 10: topical bromhexine, severe fibromyalgia; type: in vivo, human; details: 25 min after topical bromhexine
From the text: as §1, §2
A patient with severe fibromyalgia pain presented an exacerbation with painful hand/finger movements and swelling. […] The patient was surprised about the reduced swelling, the possibility of the closure of fist and a reduction of the functional impairment during movement. Closure of the fist was only possible to a half-closed position without (or almost no) pain before treatment (FIG. 4C, top panel).

[7] = test system: treated patients; assay: Topical bromhexine cream in pain patients: onset, duration, side effects (all cases); type: in vivo, human
From the text: as §1
as §2, with “sufficient. […]” for “sufficient.”

[8] = test system: patient with complex regional pain syndrome (CRPS); assay: Case report 7: topical bromhexine, complex regional pain syndrome (CRPS); type: in vivo, human; details: 30-45 min following the treatment
From the text: as §1
as §2, with “sufficient. […]” for “sufficient.”

[9] = test system: patient with pain in right hand and wrist due to osteoarthritis; assay: Case report 3: topical bromhexine cream, NRS pain score, osteoarthritis of hand and wrist; type: in vivo, human; details: within 2 hours after topical bromhexine cream; NRS 6 before treatment
From the text: as §1
as §2, with “sufficient. […]” for “sufficient.”

[10] = test system: patient with painful left knee after meniscus surgery; assay: Case report 3: topical bromhexine, NRS pain score, knee pain after meniscus surgery; type: in vivo, human; details: after bromhexine treatment; NRS 8 before; time not stated
From the text: as §1
as §2, with “sufficient. […]” for “sufficient.”

[11] = test system: patient with severe chronic low back pain and S1 radiculopathy; assay: Case report 5: topical bromhexine, low back pain (S1-radiculopathy); type: in vivo, human
From the text: as §1
as §2, with “sufficient. […]” for “sufficient.”

[12] = test system: patient with rheumatoid arthritis and fibromyalgia; assay: Case report 6: topical bromhexine cream, rheumatoid arthritis and fibromyalgia, hands; type: in vivo, human
From the text: as §1, §2
A rheumatoid arthritis and fibromyalgia for many years developed a chronic pain disease in a person. Hands were distorted painfully and movements like the closure of fist were only possible very slowly and the movement was painful and incomplete. Self-supply was threatened. The medical options for pain therapy were limited due to long-term side effects on stomach, kidney, cardiovascular system and liver by nonsteroidal anti-rheumatic drugs (NSAIDS) or coxibes as well as the risk of tumbling caused by central nervous effects as sedation and dizziness. Bromhexine cream was applied at both hands. Already 2 min later the patients started to move both hands and ‘searched their pain’ because it was improved and movements could be performed more easily, quickly and complete. […]

[13] = test system: patient with postherpetic neuralgia; assay: Case report 4: topical bromhexine, postherpetic neuralgia; type: in vivo, human; details: for pain in the treated area (NRS): untreated abdominal area unchanged
From the text: as §1, §2, §3
A patient contracted an infection with the herpes zoster virus followed by skin eruptions 3 years ago. In the affected area of the right thorax they developed a dynamic allodynia and pinprick hyperalgesia and hypersensitivity to cold and airbrush which spread out circular to the abdominal region. Only the dorsal part of the area was treated with bromhexine. […]

[14] = test system: patient with chronic severe pain syndrome of both hands and arms from unclear origin; assay: Case report 8: topical bromhexine, chronic unclear severe pain syndrome of hands and arms; type: in vivo, human
From the text: as §1, §2
Further the extent of possible finger spreading was much better in their left hand, which was treated with the bromhexine compared to their untreated right hand (FIG. 1 C). Particularly the extent of the “pain limited” finger spreading of their bromhexine treated left hand hand compared to their untreated right hand increased. In their untreated right hand pain started immediately with the first movement. Further, the extent of possible free of pain elbow rotation 20 min after bromhexine in their left treated elbow increased (FIG. 1D, bottom panel). No movement free of pain was possible in their right elbow (FIG. 1D, top panel).

[15] = test system: patient with fibromyalgia pain; assay: Case report 11: topical bromhexine, fibromyalgia pain of the hands; type: in vivo, human
From the text: as §1
as §2, with “sufficient. […]” for “sufficient.”

[16] = test system: mucus; details: cited from earlier work
[17] = test system: patient with osteoarthritis in both knees and chronic postsurgical pain (CPSP) after knee replacement; assay: Case report 1: topical bromhexine cream, NRS pain score, knees; type: in vivo, human
From the text: as §1, §2, §3
A patient suffered from osteoarthritis in both knees and had received knee replacement followed by chronic postsurgical pain (CPSP) in one of it. […] Starting on a pain level of NRS 7, 30 min after topical bromhexine the pain decreased to NRS 6 and to NRS 4 within 2 hours. […] On another occasion the pain was reduced in both knees from NRS 6 before bromhexine treatment to NRS 3 after 2 hours.

[18] = in vivo; cited from earlier work

For `Nc1c(Br)cc(Br)cc1CN[C@H]1CC[C@H](O)CC1` [Ambroxol], which pain-related behavior [1] is on record?
Its pain-related behavior is “reduce pain-related behavior”.

And the pain [2]?
The pain was “alleviate pain”.

And the “Na+ currents in sensory neurons” value [3]?
Its value is “block Na+ currents”.

For `NCC1(CC(=O)O)CCCCC1` [Gabapentin], which “effect of earlier treatment (patient history)” value (from here on “effect of earlier treatment”) [4] is on record?
Its value is “not helpful”.

Which results are given for `CN(Cc1cc(Br)cc(Br)c1N)C1CCCCC1` [bromhexine, 2,4-dibromo-6-[[cyclohexyl(methyl)amino]methyl]aniline]?
closure of the fist [5]: closed completely and with reduced pain; also recorded: performed completely and with reduced pain; swelling of the treated right hand [6]: strongly reduced; closure of the fist ([6]; before: only half-closed without pain): completely possible without pain; also recorded: closed completely and without pain; movement of the thumb to the palm ([6]; impossible before): free of pain; also recorded: not any longer limited by pain; side effects [7]: None of the treated patients reported side effects; motions of the hand [8]: without stabbing sensations; burning pain (NRS) ([8]; 8 NRS before): 3 NRS; pain (NRS) [9]: 0.5 NRS; pain intensity (NRS) [10]: 4.5 NRS; stabbing sensations ([11]; after bromhexine): reduced; pain level (NRS) ([11]; within 30 minutes, NRS 6 before bromhexine): about 4; closure of fist ([12]; 5 min after topical bromhexine, both hands): improved notable in motion sequence; also recorded: improved notably in motion sequence; time to first improvement of pain and movements ([12]; after application of bromhexine cream at both hands): 2 min; duration of the improvement ([12]; in vivo): several hours; pain in the treated area (NRS) ([13]; after 15 min): 4 NRS; pain in the treated area (NRS) ([13]; after 30 min): 1 NRS; tingling sensation and subjective hypersensitivity ([13]; after the first few minutes, treated dorsal area): disappeared completely; swelling in the treated area ([14]; 20 min after bromhexine): reduction of swelling; extent of possible free of pain elbow rotation ([14]; 20 min after bromhexine, left treated elbow): increased; reddening of the treated left hand ([14]; 20 min following topical bromhexine, right hand untreated): reduction of reddening; pain and feeling of swelling and tension ([14]; 20 min following topical bromhexine, treated left hand): impressive reduction; movements of the left hand and arm ([14]; about 30 min after bromhexine, none free of pain in untreated right arm): able to perform movements free of pain; also recorded: diverse possible movements free of pain; extent of possible finger spreading ([14]; treated left hand compared to untreated right hand, 20 min): much better; stabbing ([15]; 30 min following topical bromhexine): disappeared; pain in both hands with tension, stiffness, swelling and stabbing ([15]; 30 min following topical bromhexine to the hands, NRS 5 before): disappeared broadly; secretion volume ([16]; in vivo): increases; viscosity of the sputum ([16]; in vivo): decreases; side-effects ([16]; known oral use): very few side-effects; pain level (NRS) ([17]; 30 min after topical bromhexine, starting pain level NRS 7, knee with CPSP): 6 NRS; pain level (NRS) ([17]; another occasion, both knees, NRS 6 before bromhexine, after 2 hours): 3 NRS; pain level (NRS) ([17]; within 2 hours after topical bromhexine, starting pain level NRS 7, knee with CPSP): 4 NRS; bioavailability [18]: relatively low; hepatic first-pass effect [18]: up to 80%; passage of the blood-brain barrier [18]: pass the blood-brain barrier; functional impairment of walking ([4]; 8 hours later): without recurrence; pain level (NRS) ([4]; 8 hours later, NRS 5 before): 2 NRS; pain during heel-to-toe roll and forefoot touch sensitivity ([4]; after 30 min, for hours, NRS 5 before): disappeared; pain level (NRS) during heel-to-toe roll and forefoot touch sensitivity ([4]; within 15 min after topical bromhexine, NRS 5 before): 1 NRS

Which “effect of earlier treatment” value ([17]; topical plasters, before bromhexine) does the source give for `CCN(CC)CC(=O)Nc1c(C)cccc1C` [lidocaine] here?
Its value is “not been helpful”.

What about the “effect of earlier treatment” value [4] of the same molecule?
Its value is “not helpful”.
